# Tests used:
# [1] = detection of radiolabelled compound in saliva; format: in vivo
# Description: For example, in the treatment of adult humans, dosages of from about 5 to 20 mg per day may be used. A once a day dosage is normally sufficient, although divided doses may be administered. For treatment of fungal dermatitis in a human, a dose range of from about […], preferably 5 to 20 mg per day is suitable.
# [2] = tested on: conditioned avoidance response; settings: rats; cited from earlier work
# [3] = tested on: apomorphine-induced hypothermia; settings: mice; cited from earlier work
# [4] = double-blind, randomized, placebo and haloperidol-controlled clinical trial: occurrence of fungal dermatitis; format: in vivo; settings: 15 +/-2.5 mg/day vs haloperidol (15 +/- 5 mg/day), double-blind extension treatment phase, human subjects
# Description: Such effectiveness for the treatment, amelioration of fungal dermatitis was shown in the following clinical trial:
# The study was a double-blind, randomized, parallel, placebo and haloperidol-controlled study of 55 human subjects. The study was conducted in 23 study centers throughout the United States and Canada. […] The acute phase lasted for 6 weeks with evaluations performed weekly followed by a double-blind extension phase of at least one year.
# 5-HT1C receptor = target: T1, 5-HT1C receptor (Homo sapiens, UniProt P28335); settings: in vitro; cited from earlier work
# T1 sequence (P28335 33-458): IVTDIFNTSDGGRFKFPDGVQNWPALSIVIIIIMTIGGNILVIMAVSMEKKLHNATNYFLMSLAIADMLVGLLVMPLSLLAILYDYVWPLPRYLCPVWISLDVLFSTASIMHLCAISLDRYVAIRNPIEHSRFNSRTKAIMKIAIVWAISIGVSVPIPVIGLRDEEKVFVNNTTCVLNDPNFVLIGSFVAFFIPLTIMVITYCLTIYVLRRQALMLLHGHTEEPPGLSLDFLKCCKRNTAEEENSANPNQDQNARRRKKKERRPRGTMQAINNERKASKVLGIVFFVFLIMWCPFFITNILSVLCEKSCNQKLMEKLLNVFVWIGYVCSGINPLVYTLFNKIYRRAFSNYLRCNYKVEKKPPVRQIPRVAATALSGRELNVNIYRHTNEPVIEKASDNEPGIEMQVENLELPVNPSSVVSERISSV
# [5] = tested on: apomorphine-induced climbing behavior; settings: mice; cited from earlier work
smiles,measurement,setting,value
"Cc1cc2c(s1)Nc1ccccc1N=C2N1CCN(C)CC1 [2-methyl-4-(4-methyl-1-piperazinyl)-10H-thieno[2,3-b][1,5]benzodiazepine]",detection in the saliva,[1],can be detected in the saliva
same,conditioned avoidance response,[2],inhibits
same,apomorphine-induced hypothermia,[3],antagonized
same,occurrence of fungal dermatitis compared with haloperidol,[4],statistically significantly less frequently
same,activity at the 5-HT1C receptor,5-HT1C receptor,active
same,apomorphine-induced climbing behavior,[5],antagonized
